By IC50 is commonly meant the concentration needed to halve the response being measured.

Like-named read-outs stand apart in the source and are kept apart here.

The target in data set [1] is T1, AHR (Homo sapiens, UniProt P35869).
T1 sequence (P35869 11-848): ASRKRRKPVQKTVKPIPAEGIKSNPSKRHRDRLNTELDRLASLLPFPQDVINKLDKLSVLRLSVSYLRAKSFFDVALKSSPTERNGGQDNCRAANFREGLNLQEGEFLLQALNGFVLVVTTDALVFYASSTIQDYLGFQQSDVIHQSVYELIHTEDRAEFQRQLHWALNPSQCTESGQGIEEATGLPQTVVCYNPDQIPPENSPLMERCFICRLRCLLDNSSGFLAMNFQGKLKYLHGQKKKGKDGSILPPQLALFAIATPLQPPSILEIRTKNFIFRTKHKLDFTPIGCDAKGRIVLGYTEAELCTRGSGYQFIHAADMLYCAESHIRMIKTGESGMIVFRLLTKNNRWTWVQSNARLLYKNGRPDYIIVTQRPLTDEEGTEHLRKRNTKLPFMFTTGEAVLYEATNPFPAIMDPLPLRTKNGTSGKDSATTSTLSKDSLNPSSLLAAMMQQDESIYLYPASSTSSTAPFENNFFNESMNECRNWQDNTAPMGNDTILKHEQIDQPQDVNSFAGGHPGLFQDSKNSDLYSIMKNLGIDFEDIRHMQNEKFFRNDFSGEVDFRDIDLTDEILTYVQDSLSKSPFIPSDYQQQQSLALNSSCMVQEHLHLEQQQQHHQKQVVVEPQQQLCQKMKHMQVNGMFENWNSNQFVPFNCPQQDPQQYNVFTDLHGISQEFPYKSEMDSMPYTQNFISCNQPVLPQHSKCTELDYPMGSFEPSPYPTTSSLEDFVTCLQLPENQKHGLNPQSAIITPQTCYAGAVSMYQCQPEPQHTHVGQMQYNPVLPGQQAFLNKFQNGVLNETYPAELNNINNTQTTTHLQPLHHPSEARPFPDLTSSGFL
As to the kind of experiment: In vitro assay 1: antagonism in human cell line (transactivation assay, kynurenic acid prestimulated). Conditions: Assay 1: AHR-luc Hum Antagonism IC50 [M], 150 μM kynurenic acid, 20 hours, firefly luciferase.

The subject of data set [2] is AHR-regulated gene CYP1A1. The data set can be described thus: In vitro assay 3: AHR-regulated CYP1A1 expression in human cell line (U937, qPCR). For orientation: Quantitative PCR measures a nucleic acid by following its amplification.
Experimental: In Vitro Assay 3: AHR-Regulated CYP1A1 Expression in Human Cell Line
To assess the AHR inhibitory activity of the substances described in this application, the ability thereof to antagonise ligand-induced AHR gene regulation in a dose-dependent manner was quantified. For this purpose, quantitative PCR analysis was used to determine expression of the AHR-regulated gene CYP1A1 in a human monocytic U937 cell line upon stimulation with 200 μM KA in the presence and absence of AHR inhibitor. U937 cells were sown at a concentration of 2×10^5 cells/well in 100 ul of growth medium (RPMI 1640, 20% FCS) in 96-well microtitre plates. CYP1A1 expression was induced with 200 μM KA (positive control) in the presence or absence of the substances for 6 hours. Human U937 cells were typically incubated with eight different concentrations of the substances (1 nM, 3 nM, 10 nM, 30 nM, 100 nM, 300 nM, 1 μM and 3 μM) and analyzed in duplicate on the same microtitre plate. After stimulation, cells were lysed with Nucleic Acid Lysis Solution (#4305895, Applied Biosystems) and RNA was isolated using the 6100 Nucleic Acid Preparation Station (Applied Biosystems) and reverse-transcribed to cDNA using SuperScript VILO cDNA synthesis kit (#11754-250, Invitrogen). Unstimulated cells were used as the negative control. Taqman probes for human CYP1A1 (Hs01054797_g1) and human HPRT (Hs02800695_m1) were used to analyze fold expression of CYP1A1 of HPRT. Quantitation was performed on a Taqman SDS7900HT.
For data set [3], the target named is T1, AHR. As to the kind of experiment: In vitro assay 2: agonism in human cell line (transactivation assay).
[4] abbreviates: read-out: Assay 3: Hum CYP1A1 Antagonism IC50, U937 cells, 200 μM KA, 6 hours, qPCR.
Where [5] appears, read: Assay 2: AHR-luc Hum Agonism IC50 [M], no kynurenic acid, 20 hours, firefly luciferase.
[6] abbreviates: Homo sapiens, U-937, 6 h, read-out: Assay 3: Hum CYP1A1 Antagonism IC50 [M], U937 cells, 200 μM KA, 6 hours, qPCR.
Where [7] appears, read: read-out: Assay 2: AHR-luc Hum Agonism IC50, no kynurenic acid, 20 hours, firefly luciferase.

`O=C(N[C@@H]1COC[C@@H]1O)c1cc(-c2ccc(C(F)(F)F)cc2)nn(-c2cccc(F)c2)c1=O` (single isomer, unassigned) [Example 344, (+)-2-(3-fluorophenyl)-N-(cis-4-hydroxytetrahydrofuran-3-yl)-3-oxo-6-[4-(trifluoromethyl)phenyl]-2,3-dihydropyridazine-4-carboxamide]: the values for the IC50 in data set [1], in data set [2] (setting [4]) and in data set [3] (setting [5]) were 5.84e-09 M, 1.85e-08 M and > 2e-05 M, respectively.
As to `CN(C)c1ccc(-c2cc(C(=O)NC(CO)C(F)(F)F)c(=O)n(-c3cccc(F)c3)n2)cc1Cl` (stereo not drawn) [Example 376, 6-[3-chloro-4-(dimethylamino)phenyl]-2-(3-fluorophenyl)-3-oxo-N-(1,1,1-trifluoro-3-hydroxypropan-2-yl)-2,3-dihydropyridazine-4-carboxamide], the IC50 was 3.97e-08 M in data set [1], 1.12e-07 M in data set [2] (setting [6]) and > 2e-05 M in data set [3] (setting [5]).
In the case of `CC(O)C(C)NC(=O)c1cc(-c2ccc(OC(F)(F)F)cc2)nn(-c2cccc(F)c2)c1=O` (single isomer, unassigned) [Example 181, 2-(3-Fluorophenyl)-N-(3-hydroxybutan-2-yl)-3-oxo-6-[4-(trifluoromethoxy)phenyl]-2,3-dihydropyridazine-4-carboxamide], the IC50 in data set [1] is 8.02e-08 M; in data set [2] (setting [6]) it was 2.12e-07 M; in data set [3] (setting [7]), > 2e-05 M.
Take `CC(C)C(O)CNC(=O)c1cc(-c2ccc(Cl)cc2)nn(-c2cc(F)cc(F)c2)c1=O` (single isomer, unassigned) [Example 49, 6-(4-Chlorophenyl)-2-(3,5-difluorophenyl)-N-(2-hydroxy-3-methylbutyl)-3-oxo-2,3-dihydropyridazine-4-carboxamide]: the IC50 in data set [1] was 3.42e-08 M; in data set [2] (setting [4]) it was 4.92e-08 M; in data set [3] (setting [5]) it was > 2e-05 M.
With `CC[C@@H](CO)NC(=O)c1cc(-c2ccc(Cl)c(Cl)c2)nn(-c2cccc(F)c2)c1=O` [Example 306, 6-(3,4-Dichlorophenyl)-2-(3-fluorophenyl)-N-[(2S)-1-hydroxybutan-2-yl]-3-oxo-2,3-dihydropyridazine-4-carboxamide], the IC50 in data set [1] is 1.06e-07 M; in data set [2] (setting [6]) it was 1.75e-07 M; in data set [3] (setting [5]), > 2e-05 M.
For the compound `C[C@@H](O)[C@@H](C)NC(=O)c1cc(-c2ccc(Cl)cc2)nn(-c2cccc(F)c2)c1=O` [Example 231, 6-(4-Chlorophenyl)-2-(3-fluorophenyl)-N-[(2R,3R)-3-hydroxybutan-2-yl]-3-oxo-2,3-dihydropyridazine-4-carboxamide], the half-maximal inhibitory concentration (IC50) in data set [1] was 4.72e-08 M; in data set [2] (setting [6]), 5.77e-08 M; in data set [3] (setting [5]) it was > 2e-05 M.
Take `CC(C)(O)[C@@H](NC(=O)c1cc(-c2ccc(OC(F)(F)F)cc2)nn(-c2cccc(F)c2)c1=O)C1CC1` [Example 379, N-[(1S)-1-cyclopropyl-2-hydroxy-2-methylpropyl]-2-(3-fluorophenyl)-3-oxo-6-[4-(trifluoromethoxy)phenyl]-2,3-dihydropyridazine-4-carboxamide]: the IC50 in data set [1] was 9.6e-09 M; in data set [2] (setting [6]), 6.9e-09 M; in data set [3] (setting [5]), > 2e-05 M.
For the compound `O=C(NCC(O)C(F)(F)F)c1cc(-c2ccc(Cl)cc2)nn(-c2cccc(F)c2)c1=O` (single isomer, unassigned) [Example 26, 6-(4-Chlorophenyl)-2-(3-fluorophenyl)-3-oxo-N-(3,3,3-trifluoro-2-hydroxypropyl)-2,3-dihydropyridazine-4-carboxamide], the IC50 in data set [1] is 1.84e-08 M; in data set [2] (setting [4]) it was 3.52e-08 M; in data set [3] (setting [5]) it was > 2e-05 M.
Consider `CC(O)CCNC(=O)c1cc(-c2ccc(C(F)(F)F)cc2)nn(-c2cccc(F)c2)c1=O` (racemic) [Example 247, 2-(3-Fluorophenyl)-N-[(3RS)-3-hydroxybutyl]-3-oxo-6-[4-(trifluoromethyl)phenyl]-2,3-dihydropyridazine-4-carboxamide], for which the IC50 in data set [1] was 8.35e-08 M; in data set [2] (setting [6]), 1.71e-07 M; in data set [3] (setting [5]), > 2e-05 M.
Consider `O=C(NC[C@@H](O)CO)c1cc(-c2ccc(C(F)(F)F)cc2)nn(-c2cccc(F)c2)c1=O` [Example 265, (+)-N-[(2R)-2,3-Dihydroxypropyl]-2-(3-fluorophenyl)-3-oxo-6-[4-(trifluoromethyl)phenyl]-2,3-dihydropyridazine-4-carboxamide], for which the IC50 in data set [1] was 6.04e-08 M; in data set [2] (setting [6]) it was 2.15e-07 M; in data set [3] (setting [5]), > 2e-05 M.
As for `O=C(N[C@H]1CCC[C@H]1O)c1cc(-c2ccc(Cl)cc2)nn(-c2cccc(F)c2)c1=O` [Example 111, 6-(4-Chlorophenyl)-2-(3-fluorophenyl)-N-[(1S,2R)-2-hydroxycyclopentyl]-3-oxo-2,3-dihydropyridazine-4-carboxamide], the figures for the IC50 in data set [1], in data set [2] (setting [6]) and in data set [3] (setting [5]) were 2.03e-08 M, 2.91e-08 M and > 2e-05 M, respectively.
As to `COc1ccc(-c2cc(C(=O)NCC(O)C(F)(F)F)c(=O)n(-c3cccc(F)c3)n2)cc1` (single isomer, unassigned) [Example 128, 2-(3-Fluorophenyl)-6-(4-methoxyphenyl)-3-oxo-N-(3,3,3-trifluoro-2-hydroxypropyl)-2,3-dihydropyridazine-4-carboxamide], the IC50 is 1.7e-07 M in data set [1], 6e-07 M in data set [2] (setting [4]) and > 2e-05 M in data set [3] (setting [7]).
For the compound `Cc1cccc(-n2nc(-c3ccc(Cl)cc3)cc(C(=O)N[C@H](CO)C(C)C)c2=O)c1` [Example 365, 6-(4-chlorophenyl)-N-[(2S)-1-hydroxy-3-methylbutan-2-yl]-2-(3-methylphenyl)-3-oxo-2,3-dihydropyridazine-4-carboxamide], the IC50 is 4.18e-07 M in data set [1], > 1e-06 M in data set [2] (setting [6]) and > 2e-05 M in data set [3] (setting [5]).
For `CC[C@@H](CO)NC(=O)c1cc(-c2ccc(OC(F)(F)F)cc2)nn(-c2cccc(F)c2)c1=O` [Example 172, 2-(3-Fluorophenyl)-N-[(2S)-1-hydroxybutan-2-yl]-3-oxo-6-[4-(trifluoromethoxy)phenyl]-2,3-dihydropyridazine-4-carboxamide], the half-inhibitory concentration (IC50) in data set [1] is 2.63e-08 M; in data set [2] (setting [6]), 2.68e-08 M; in data set [3] (setting [5]), > 2e-05 M.
On the same counts, the results for `O=C(NC(CO)C1CCC1)c1cc(-c2ccc(Cl)cc2)nn(-c2cccc(F)c2)c1=O` (racemic) [Example 209, 6-(4-Chlorophenyl)-N-[(1RS)-1-cyclobutyl-2-hydroxyethyl]-2-(3-fluorophenyl)-3-oxo-2,3-dihydropyridazine-4-carboxamide] are 3.27e-08 M, 3.21e-08 M and > 2e-05 M.
Regarding `CC(C)(O)C(NC(=O)c1cc(-c2ccc(Cl)cc2)nn(-c2cccc(F)c2)c1=O)C(F)(F)F` (stereo not drawn) [Example 277, 6-(4-Chlorophenyl)-2-(3-fluorophenyl)-3-oxo-N-(1,1,1-trifluoro-3-hydroxy-3-methylbutan-2-yl)-2,3-dihydropyridazine-4-carboxamide], the IC50 in data set [1] is 4.94e-09 M; in data set [2] (setting [6]), 2.08e-08 M; in data set [3] (setting [5]), > 2e-05 M.
In the case of `C[C@H](CO)CNC(=O)c1cc(-c2ccc(C(F)(F)F)cc2)nn(-c2cccc(F)c2)c1=O` [Example 246, (−)-2-(3-Fluorophenyl)-N-[(2S)-3-hydroxy-2-methylpropyl]-3-oxo-6-[4-(trifluoromethyl)phenyl]-2,3-dihydropyridazine-4-carboxamide], the IC50 is 2.78e-08 M in data set [1], 4.05e-08 M in data set [2] (setting [6]) and > 2e-05 M in data set [3] (setting [5]).
On the same counts, the results for `O=C(NCC(O)C(F)(F)F)c1cc(-c2ccc(Cl)cc2)nn(-c2cccc(F)c2)c1=O` (stereo not drawn) [Example 25, 6-(4-Chlorophenyl)-2-(3-fluorophenyl)-3-oxo-N-(3,3,3-trifluoro-2-hydroxypropyl)-2,3-dihydropyridazine-4-carboxamide] are 3.75e-08 M, 5.86e-08 M and > 2e-05 M.
For the compound `COC[C@@H](CO)NC(=O)c1cc(-c2ccc(Cl)cc2)nn(-c2cccc(F)c2)c1=O` [Example 314, 6-(4-chlorophenyl)-2-(3-fluorophenyl)-N-[(2R)-1-hydroxy-3-methoxypropan-2-yl]-3-oxo-2,3-dihydropyridazine-4-carboxamide], the values for the IC50 in data set [1], in data set [2] (setting [6]) and in data set [3] (setting [5]) were 9.54e-08 M, 2.31e-07 M and > 2e-05 M, respectively.

For the origin of these results see patent US11040035B2, “3-oxo-2,6-diphenyl-2,3-dihydropyridazine-4-carboxamides” (BAYER PHARMA AKTIENGESELLSCHAFT, priority 2016, dated 2021).
